Data set [1] has as its target T1, Muscarinic acetylcholine receptor M2 (Homo sapiens, UniProt P08172). Note: in other assays of this panel Not Active means under 50% inhibition at 10 µM.
T1 sequence (P08172 whole entry): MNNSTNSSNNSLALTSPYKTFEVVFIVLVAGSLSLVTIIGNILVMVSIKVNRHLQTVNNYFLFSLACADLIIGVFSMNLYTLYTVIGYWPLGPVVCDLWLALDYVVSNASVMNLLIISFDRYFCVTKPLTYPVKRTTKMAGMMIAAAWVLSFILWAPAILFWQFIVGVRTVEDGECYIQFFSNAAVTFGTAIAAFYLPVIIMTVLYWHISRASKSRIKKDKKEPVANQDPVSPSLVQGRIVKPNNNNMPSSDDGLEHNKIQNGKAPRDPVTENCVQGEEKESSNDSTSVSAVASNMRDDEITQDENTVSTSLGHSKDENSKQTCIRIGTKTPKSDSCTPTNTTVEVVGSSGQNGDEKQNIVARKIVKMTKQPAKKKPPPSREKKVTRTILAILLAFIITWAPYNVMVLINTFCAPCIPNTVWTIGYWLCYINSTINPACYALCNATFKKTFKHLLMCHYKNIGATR
It is filed as cell membranes, CHO-K1, Membrane.

The nature of data set [2]: DRUGMATRIX: Purinergic P2X radioligand binding (ligand: [3H] alpha, beta-Methylene-ATP). It is filed as cell membranes, Oryctolagus cuniculus, New Zealand albino, Urinary bladder, Membrane. The settings on record: Not Active = under 50% inhibition at 10 µM.
A short description of data set [3]: DRUGMATRIX: Calcium Channel Type L, Dihydropyridine radioligand binding (ligand: [3H] Nitrendipine). It is filed as cell membranes, Rattus norvegicus, Wistar, Cerebral cortex, Membrane. The settings on record: Not Active = under 50% inhibition at 10 µM.
Data set [4] concerns the target Protein phosphatase 3 catalytic subunit alpha (Homo sapiens, UniProt Q08209). Set-up: species or system Escherichia coli.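 Note: inhibition of calcineurin (PP2B) enzyme activity, measured with DiFMUP as the substrate; in other assays of this panel Not Active means under 50% inhibition at 10 µM.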
The next data set concerns the target Melanocortin receptor 4 (Homo sapiens, UniProt P32245). It is filed as cell membranes, Membrane. Conditions: hek293. Note: in other assays of this panel Not Active means under 50% inhibition at 10 µM.
The next data set has as its target T2, Leukotriene C4 synthase (Cavia porcellus, UniProt A6XA80).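 Note: enzyme inhibition assay of leukotriene C4 synthase, using LTA4 as the substrate; in other assays of this panel Not Active means under 50% inhibition at 10 µM.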
T2 sequence (A6XA80 whole entry): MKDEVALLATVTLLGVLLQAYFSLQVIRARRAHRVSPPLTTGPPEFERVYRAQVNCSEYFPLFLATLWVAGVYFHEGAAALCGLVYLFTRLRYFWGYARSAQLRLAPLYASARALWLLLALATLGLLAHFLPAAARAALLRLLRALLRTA
The data set can be described thus: biochemical. Type of data set: tissue-based, Lung.

In the next data set the target is T3, Caspase-1 (Homo sapiens, UniProt P29466).
T3 sequence (P29466 whole entry): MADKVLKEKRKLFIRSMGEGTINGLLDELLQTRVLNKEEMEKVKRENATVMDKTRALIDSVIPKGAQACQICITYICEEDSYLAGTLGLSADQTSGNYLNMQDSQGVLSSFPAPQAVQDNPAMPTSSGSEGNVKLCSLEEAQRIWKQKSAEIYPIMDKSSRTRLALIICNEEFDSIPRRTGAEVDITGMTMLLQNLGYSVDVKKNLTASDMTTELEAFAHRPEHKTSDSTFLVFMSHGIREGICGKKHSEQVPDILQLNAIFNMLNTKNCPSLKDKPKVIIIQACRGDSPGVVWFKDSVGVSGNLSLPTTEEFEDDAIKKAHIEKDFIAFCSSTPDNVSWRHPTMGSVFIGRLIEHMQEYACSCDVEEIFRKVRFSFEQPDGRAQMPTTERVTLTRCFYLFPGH
Set-up: species or system Escherichia coli.

The target of the next data set is T4, Cytochrome P450 2A6 (Homo sapiens, UniProt P11509). Note: in other assays of this panel Not Active means under 50% inhibition at 10 µM.
T4 sequence (P11509 whole entry): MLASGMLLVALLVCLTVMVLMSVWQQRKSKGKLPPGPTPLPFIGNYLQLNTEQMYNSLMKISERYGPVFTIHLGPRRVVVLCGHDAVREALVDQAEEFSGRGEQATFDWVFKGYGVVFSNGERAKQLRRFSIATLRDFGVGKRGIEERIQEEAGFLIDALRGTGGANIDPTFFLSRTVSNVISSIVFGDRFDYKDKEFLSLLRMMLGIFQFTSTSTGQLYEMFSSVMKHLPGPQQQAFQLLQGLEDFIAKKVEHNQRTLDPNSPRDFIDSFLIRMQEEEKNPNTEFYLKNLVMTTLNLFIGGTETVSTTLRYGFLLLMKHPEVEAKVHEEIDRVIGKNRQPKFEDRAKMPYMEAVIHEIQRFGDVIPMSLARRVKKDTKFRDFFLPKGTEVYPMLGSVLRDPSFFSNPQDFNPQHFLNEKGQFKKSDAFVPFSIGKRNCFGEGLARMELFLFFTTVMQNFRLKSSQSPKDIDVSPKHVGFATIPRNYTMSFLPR
The settings on record: bti-tn-5b1-4.

Sequence of Melanocortin receptor 4 (P32245 whole entry): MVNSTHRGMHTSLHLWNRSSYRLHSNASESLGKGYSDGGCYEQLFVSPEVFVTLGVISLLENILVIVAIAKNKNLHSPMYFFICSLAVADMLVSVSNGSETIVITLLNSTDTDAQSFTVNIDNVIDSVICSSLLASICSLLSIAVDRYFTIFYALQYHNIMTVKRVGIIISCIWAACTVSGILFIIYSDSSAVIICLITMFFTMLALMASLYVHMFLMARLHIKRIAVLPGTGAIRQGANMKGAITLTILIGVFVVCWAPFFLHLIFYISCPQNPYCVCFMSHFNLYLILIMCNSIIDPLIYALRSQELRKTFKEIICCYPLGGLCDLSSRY

Regarding `CC1(COc2ccc(CC3SC(=O)NC3=O)cc2)CCCCC1` (centres undefined) [CIGLITAZONE], the IC50 in data set [1] (read-out: IC50) is 21.1 µM; in data set [2], “Not Active”; in data set [3], “Not Active”; in data set [4], “Not Active”; on Melanocortin receptor 4, “Not Active”; at Leukotriene C4 synthase, “Not Active”. Also, the IC50 entry against Caspase-1 and against Cytochrome P450 2A6 was “Not Active” throughout. The inhibition constant (Ki) in data set [1] (read-out: Ki) was 7.5 µM; in data set [2], “Not Active”; in data set [3], “Not Active”; on Cytochrome P450 2A6, “Not Active”.
With `OC[C@H]1O[C@@H]2O[C@H]3[C@H](O)[C@@H](O)[C@@H](O[C@H]4[C@H](O)[C@@H](O)[C@@H](O[C@H]5[C@H](O)[C@@H](O)[C@@H](O[C@H]6[C@H](O)[C@@H](O)[C@@H](O[C@H]7[C@H](O)[C@@H](O)[C@@H](O[C@H]8[C@H](O)[C@@H](O)[C@@H](O[C@H]1[C@H](O)[C@H]2O)O[C@@H]8CO)O[C@@H]7CO)O[C@@H]6CO)O[C@@H]5CO)O[C@@H]4CO)O[C@@H]3CO` [BETADEX], the IC50 entry (in data set [1] (cho-k1); in data set [2]; in data set [3]; in data set [4]; at Melanocortin receptor 4; against Leukotriene C4 synthase) was “Not Active” in each case. The IC50 entry against Caspase-1 and against Cytochrome P450 2A6 was “Not Active” each time. For the same compound, the Ki result (in data set [2]; in data set [3]; at Cytochrome P450 2A6) was “Not Active” each time.
With `COc1ccc(Cl)cc1C(=O)NCCc1ccc(S(=O)(=O)NC(=O)NC2CCCCC2)cc1` [GLYBURIDE], the IC50 result (in data set [1] (cho-k1); in data set [2]; in data set [3]; in data set [4]; at Melanocortin receptor 4; on Leukotriene C4 synthase) was “Not Active” each time. In addition, the IC50 result against Caspase-1 and at Cytochrome P450 2A6 was “Not Active” throughout. In addition, the Ki result (in data set [2]; in data set [3]; at Cytochrome P450 2A6) was “Not Active” each time.
`COC(=O)Nc1nc2ccc(Sc3ccccc3)cc2[nH]1` [FENBENDAZOLE]: the IC50 result (in data set [1] (cho-k1); in data set [2]; in data set [3]; in data set [4]; on Melanocortin receptor 4; against Leukotriene C4 synthase) was “Not Active” in each case. For the same compound, the IC50 entry at Caspase-1 and against Cytochrome P450 2A6 was “Not Active” throughout. Further, the Ki result (in data set [2]; in data set [3]; on Cytochrome P450 2A6) was “Not Active” in each case.
Regarding `CNC[C@H](O)c1ccc(O)c(O)c1` [EPINEPHRINE], the IC50 entry (in data set [1] (cho-k1); in data set [2]; in data set [3]; in data set [4]; against Melanocortin receptor 4; against Leukotriene C4 synthase) was “Not Active” in each case. For the same compound, the IC50 entry on Caspase-1 and against Cytochrome P450 2A6 was “Not Active” each time. In addition, the Ki entry (in data set [2]; in data set [3]; at Cytochrome P450 2A6) was “Not Active” in each case.
In the case of `C=CCO` [ALLYL ALCOHOL], the IC50 result (in data set [1] (cho-k1); in data set [2]; in data set [3]; in data set [4]; at Melanocortin receptor 4; on Leukotriene C4 synthase) was “Not Active” in each case. Also, the IC50 result on Caspase-1 and against Cytochrome P450 2A6 was “Not Active” throughout. The Ki entry (in data set [2]; in data set [3]; on Cytochrome P450 2A6) was “Not Active” in each case.
For the compound CARBOXYMETHYLCELLULOSE, the IC50 entry (in data set [1] (cho-k1); in data set [2]; in data set [3]; in data set [4]; on Melanocortin receptor 4; at Leukotriene C4 synthase) was “Not Active” each time. In addition, the IC50 result at Caspase-1 and at Cytochrome P450 2A6 was “Not Active” throughout. Further, the Ki result (in data set [1] (cho-k1); in data set [2]; in data set [3]; in data set [4]; on Melanocortin receptor 4; at Leukotriene C4 synthase) was “Not Active” each time. The Ki entry at Caspase-1 and on Cytochrome P450 2A6 was “Not Active” in each case.
`C=CCN1CC[C@]23c4c5ccc(O)c4O[C@H]2/C(=N/N=C2\CC[C@@]4(O)[C@H]6Cc7ccc(O)c8c7[C@@]4(CCN6CC=C)[C@H]2O8)CC[C@@]3(O)[C@H]1C5` [NALOXONAZINE]: the IC50 result (in data set [1] (cho-k1); in data set [2]; in data set [3]; in data set [4]; against Melanocortin receptor 4; against Leukotriene C4 synthase) was “Not Active” throughout. Further, the IC50 result against Caspase-1 and against Cytochrome P450 2A6 was “Not Active” throughout. Moreover, the Ki result (in data set [2]; in data set [3]; on Cytochrome P450 2A6) was “Not Active” throughout.
As for `Cc1ccnc2c1NC(=O)c1cccnc1N2C1CC1` [NEVIRAPINE], the IC50 entry (in data set [1] (cho-k1); in data set [2]; in data set [3]; in data set [4]; on Melanocortin receptor 4; at Leukotriene C4 synthase) was “Not Active” each time. Also, the IC50 entry at Caspase-1 and at Cytochrome P450 2A6 was “Not Active” each time. For the same compound, the Ki result (in data set [2]; in data set [3]; on Cytochrome P450 2A6) was “Not Active” in each case.
On to `NCC(CC(=O)O)c1ccc(Cl)cc1` (centres undefined) [BACLOFEN], for which the IC50 entry (in data set [1] (cho-k1); in data set [2]; in data set [3]; in data set [4]; against Melanocortin receptor 4; against Leukotriene C4 synthase) was “Not Active” each time. Moreover, the IC50 entry against Caspase-1 and against Cytochrome P450 2A6 was “Not Active” throughout. Besides, the Ki result (in data set [2]; in data set [3]; at Cytochrome P450 2A6) was “Not Active” each time.
Consider `CO[C@H]1O[C@@H]2O[C@@]3(C)CC[C@H]4[C@H](C)CC[C@@H]([C@H]1C)[C@@]24OO3`, for which the IC50 result (in data set [1] (cho-k1); in data set [2]; in data set [3]; in data set [4]; against Melanocortin receptor 4; against Leukotriene C4 synthase) was “Not Active” throughout. Besides, the IC50 result against Caspase-1 and at Cytochrome P450 2A6 was “Not Active” in each case. Also, the Ki entry (in data set [2]; in data set [3]; at Cytochrome P450 2A6) was “Not Active” in each case.
With `CC(CN1c2ccccc2Sc2ccccc21)N(C)C` (centres undefined) [PROMETHAZINE], the IC50 in data set [1] (read-out: IC50) was 0.035 µM; in data set [2], “Not Active”; in data set [3], “Not Active”; in data set [4], “Not Active”; against Melanocortin receptor 4, “Not Active”; against Leukotriene C4 synthase, “Not Active”. For the same compound, the IC50 result against Caspase-1 and at Cytochrome P450 2A6 was “Not Active” throughout. In addition, the inhibitory constant (Ki) in data set [1] (read-out: Ki) is 0.012 µM; in data set [2] it was “Not Active”; in data set [3] it was “Not Active”; at Cytochrome P450 2A6 it was “Not Active”.

By IC50 is commonly meant the concentration needed to halve the response being measured. A word on the Ki: it is a measure of affinity in units of concentration, obtained from inhibition or displacement.
